Key:
homomeric KCNQ3 = biological target: T1, homomeric KCNQ3 (Homo sapiens, UniProt O43525); assay: Homomeric KCNQ3 channels expressed in CHO cells, patch-clamp; assay type: cell-based; settings: 50 μM
T1 construct: expressed in transfected cells; host or cells: CHO cells

KCNQ1 = biological target: T2, KCNQ1 (Homo sapiens, UniProt P51787); assay: KCNQ1 current amplitude in Xenopus oocytes; assay type: cell-based; settings: 50 μM, test potentials −50 to 0 mV, data not shown
T2 construct: expressed in transfected cells; host or cells: Xenopus oocytes (cRNA microinjection)
Protocol: (§1) Briefly, two-electrode voltage-clamp measurements were performed 3-5 days following cRNA microinjection into oocytes. Oocytes were bathed in a modified ND96 solution containing (in mM): 96 NaCl, 2 KCl, 1 MgCl2, 0.1 CaCl2 and 5 HEPES titrated to pH=7.4 with NaOH. Whole-cell currents were recorded at room temperature (20° C.-22° C.) using a GeneClamp 500 amplifier (Axon Instruments, Foster City, Calif., USA). […] Current signals were filtered at 0.5 kHz and digitized at 2 kHz.
Data are expressed as mean±SEM of 5-8 separate experiments.
(§2) The current amplitude of the various channels was measured from a −80 mV holding potential.

KCNQ1/KCNE1 = biological target: T3, KCNQ1/KCNE1 (Homo sapiens, UniProt P51787); assay: KCNQ1/KCNE1 (IKS) current amplitude; assay type: cell-based; settings: 50 μM, test potentials −50 to 0 mV, data not shown
T3 construct: expressed in transfected cells; host or cells: Xenopus oocytes (stated for Compound 6)
Protocol: as §1, §2

small DRG neurons = assay: Spiking activity of DRG neurons, current-clamp; assay type: cell-based, mouse
Protocol: Dorsal root ganglion (DRG) neurons were dissected from 2-4 days-old ICR mice that were decapitated. DRGs were placed in Hank's balanced saline solution (HBSS) and were prepared by enzymatic dissociation. Briefly, cells were incubated for 30 minutes in 5 mg/ml dispase (Sigma), 2 mg/ml collagenase type 1A (Sigma) and 0.1 mg/ml DNase (Invitrogen/Gibco) in calcium and magnesium-free HBSS, and the ganglia were thereafter mechanically triturated with a firepolished glass Pasteur pipette. The ganglia were then centrifuged for 5 minutes at 80×g and resuspended in DMEM supplemented with 2 mM L-glutamine, 16.5 mM NaCO3, 6 g/l glucose, 5 ml penicillin/streptomycin and 10% fetal calf serum. For electrophysiological recording, dissociated neurons were plated on 13 mm glass coverslips previously coated with poly-D-lysine (1 mg/ml) and laminin (10 μg/ml) and were used after 2-6 days in culture.
For current measurements in CHO cells, recordings were performed 40 hours following transfection, using the whole-cell configuration of the patch-clamp technique [Hamill et al., Nature 294: 462-464 (1981)]. Signals were amplified using an Axopatch 200B patch-clamp amplifier (Axon Instruments, Foster City, Calif., USA), sampled at 2 kHz and filtered at 800 Hz via a 4-pole Bessel low pass filter. Data were acquired using pClamp 8.1 software (Axon Instruments, Foster City, Calif., USA) and an Elonex Pentium III computer in conjunction with a DigiData 1322A interface (Axon Instruments, Foster City, Calif., USA). The patch pipettes were pulled from borosilicate glass (Warner Instrument. Corp., Hamden, Conn., USA) with a resistance of 2-5 MΩ and were filled with (in mM): 130 KCl, 1 MgCl2, 5 K2ATP, 5 EGTA, 10 HEPES, adjusted with KOH at pH 7.4 (290 mOsm). The external solution contained (in [mM]): 140 NaCl, 4 KCl, 1.8 CaCl2, 1.2 MgCl2, 11 glucose, 5.5 HEPES, adjusted with NaOH at pH 7.4 (310 mOsm). Series resistances (3-13 MΩ) were compensated (75-90%) and periodically monitored. […]

[1] = test system: hippocampal pyramidal neurons; assay: Spontaneous EPSCs of hippocampal pyramidal neuron cultures, voltage-clamp; assay type: cell-based
Protocol: To further determine the synaptic site of M-channel activation by Compound 6, its effects on spontaneous excitatory postsynaptic currents (EPSCs) that could be recorded from dense networks of hippocampal pyramidal neuron cultures was tested.
In FIGS. 30B and 30C, burst activity before (control), in the presence (Compound 6) and after (Wash) application of 5 μM (FIG. 30B) and 10 μM (FIG. 30C) Compound 6, as recorded at the voltage clamp mode is shown. In FIG. 30D, burst activity before (control) and in the presence of 25 μM Linopirdine is shown. In FIG. 30E, the normalized number of bursts appeared in 180 seconds time period for 5 μM (left panel), 10 μM (mid panel) of Compound 6 and 25 μM linopirdine (right panel) are shown. The holding potential was −70 mV. n=5-6.
Thus, using the voltage-clamp configuration of the patch-clamp technique, spontaneous EPSCs were isolated at −70 mV (holding potential) in the presence of 10 μM bicuculline and 10 μM picrotoxin to block GABAA receptor-mediated inhibitory postsynaptic currents. As is shown in FIG. 30A, under control conditions, the frequency of EPSCs is variable depending of the density of the hippocampal culture, ranging from 0.4 Hz to 2 Hz. […] However, the majority of the EPSCs measured at −70 mV under the experimental recording conditions are mediated by AMPA receptors as most of the currents are blocked by 10 μM NBQX, leaving only a small fraction EPSC sensitive to the NMDA receptor blocker DL-AP5 (FIG. 30A).

Row | Compound | leftward shift of the activation curve of KCNQ3 channels (homomeric KCNQ3; CHO cells) | increase of KCNQ3 current amplitude (homomeric KCNQ3; stepped from −85 mV to −40 mV) | τdeact of KCNQ3 with compound (homomeric KCNQ3; control 319.6±40.8 msec) | V50 of KCNQ3 activation with compound (homomeric KCNQ3; control −39.0±3.5 mV) | effect on homomeric KCNQ1 currents (KCNQ1) | effect on heteromeric KCNQ1/KCNE1 currents (KCNQ1/KCNE1) | effect on trains of evoked spikes (small DRG neurons; 15 μM, 75 pA, 400 ms) | effect on solitary evoked spike (small DRG neurons; 300 pA, 1 ms pulse) | frequency of spontaneous EPSCs ([1]; 5 μM, −70 mV holding potential) | occurrence of spontaneous EPSCs ([1]; ≧10 μM)
1 | Cc1ccc(Cl)c(Nc2ccccc2C(=O)O)c1Cl [Compound 1, Meclofenamic acid] | −15 mV | 120±4% | 317.2 ± 30.2 ms | −54.0±2.0 mV | not enhanced | not enhanced | – | – | – | –
2 | O=C(Cc1ccccc1Nc1c(Cl)cccc1Cl)NCCOCCO [Compound 6] | – | – | – | – | – | – | potently and reversibly blocked | reversibly prevent the generation of the single action potential | up to 49±5 % of control | totally suppresses
